Values joined by “and” are separate entries in the source; they are usually repeats but may differ in a detail not shown here. Equal values may be shown once.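 1) Cells in 96-well plates. 2) Compound, 48 h, 5 concentrations. 3) Linear interpolation between surrounding doses. 4) Unreached endpoint = highest concentration. GI50 = concentration required for 50% inhibition of growth. TGI: total growth inhibition.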
Columns and labels:
Assay in all cases: NCI tumour cell line growth inhibition, 48 h
A498 renal = test system: A498 renal
EKVX NSCLC = test system: EKVX NSCLC
IGROV1 ovarian = test system: IGROV1 ovarian
KM12 colon = test system: KM12 colon
MALME-3M melanoma = test system: MALME-3M melanoma
NCI-H460 lung = test system: NCI-H460 lung
SK-OV-3 ovarian = test system: SK-OV-3 ovarian
SW-620 colon = test system: SW-620 colon
UACC-62 melanoma = test system: UACC-62 melanoma
UO-31 renal = test system: UO-31 renal

Row | Compound | TGI (A498 renal) | TGI (EKVX NSCLC) | TGI (IGROV1 ovarian) | TGI (KM12 colon) | TGI (MALME-3M melanoma) | TGI (NCI-H460 lung) | TGI (SK-OV-3 ovarian) | TGI (SW-620 colon) | TGI (UACC-62 melanoma) | TGI (UO-31 renal) | GI50 (A498 renal) | GI50 (EKVX NSCLC) | GI50 (IGROV1 ovarian) | GI50 (KM12 colon) | GI50 (MALME-3M melanoma) | GI50 (NCI-H460 lung) | GI50 (SK-OV-3 ovarian) | GI50 (SW-620 colon) | GI50 (UACC-62 melanoma) | GI50 (UO-31 renal)
1 | COc1cc(Nc2nc3cc(C(F)(F)F)ccc3nc2-c2ccccc2)cc(OC)c1OC | > 100 µM | > 100 µM | > 100 µM | > 100 µM | > 100 µM | > 100 µM | > 100 µM | > 100 µM | > 100 µM | > 100 µM | – | – | – | – | – | – | – | – | – | –
2 | COc1cc(/C=C2\C(=O)N(c3ccccc3)c3ccccc32)cc(OC)c1OC | 38.9 µM | 65.6 µM | 32 µM | 20.1 µM | 46.4 µM | > 100 µM | 43.8 µM | > 100 µM | 21.6 µM | 31.3 µM | 18.1 µM | 23.5 µM | 6.61 µM | 3.84 µM | 18.5 µM | 3.82 µM | 18.4 µM | 5.96 µM | 7.12 µM | 13.7 µM
3 | Clc1ccc(C2=NN[C@H](c3cn(-c4ccccc4)nc3-c3ccccc3)C2)cc1 | 8.77 µM | 18.8 µM | 33.2 µM | > 100 µM | > 100 µM | 16.9 µM | 8.75 µM | 32 µM | 28.4 µM | > 100 µM | 2.93 µM | 3.16 µM | 6.28 µM | 11.1 µM | 5.66 µM | 4.22 µM | 2.74 µM | 4.31 µM | 7.06 µM | 12.8 µM
4 | C=C(C)[C@@H]1CC[C@]2(C(=O)O)CC[C@]3(C)[C@H](CC[C@@H]4[C@@]5(C)C/C(=C/c6ccc(OC)cc6)C(=O)C(C)(C)[C@@H]5CC[C@]43C)[C@@H]12 | 8.47 µM | 10.5 µM | 7.3 µM | 4.12 µM | 4.29 µM | 3.92 µM | 16.1 µM | 4.61 µM | 3.13 µM | 4.42 µM | 2.28 µM | 2.36 µM | 2.15 µM | 1.71 µM | 1.84 µM | 1.82 µM | 3.29 µM | 1.95 µM | 1.44 µM | 1.45 µM
5 | CC(=O)OC1Oc2cc(C)c(C)cc2-c2oc(=O)c(-c3ccc(F)cc3)cc21 (stereo not given) | 67.4 µM | > 100 µM | 85.2 µM | 22.4 µM | 31.7 µM | 24.4 µM | 54 µM | 28.8 µM | 76.3 µM | > 100 µM | 5.06 µM | 5.23 µM | 7.94 µM | 3.55 µM | 5.04 µM | 3.9 µM | 4.38 µM | 3.87 µM | 3.92 µM | 4.92 µM
6 | COc1ccc2cc(Cn3cc[n+](Cc4ccc5ccccc5c4)c3)ccc2c1 | 9.13 µM | 15.5 µM | 4.87 µM | 3.43 µM | 4.03 µM | 12.7 µM | 12.6 µM | 14.1 µM | 3.25 µM | 32.1 µM | 1.03 µM | 3.71 µM | 1.75 µM | 1.72 µM | 1.53 µM | 3.24 µM | 3.19 µM | 3.12 µM | 1.49 µM | 12.7 µM
7 | C=CC[C@@H]1/C=C(\C)C[C@H](C)C[C@H](OC)[C@H]2O[C@@](O)(C(=O)C(=O)N3CCCC[C@H]3C(=O)O[C@H](/C(C)=C/C3CC[C@@H](O)[C@H](OC)C3)[C@H](C)[C@@H](O)CC1=O)[C@H](C)C[C@@H]2OC (stereo not given in full) | 24.3 µM | 34.5 µM | 41 µM | 28.7 µM | 32.1 µM | 27.9 µM | 31.2 µM | 32.2 µM | 27.6 µM | 26.4 µM | 9.95 µM | 14.2 µM | 17.3 µM | 14.9 µM | 14.6 µM | 13.7 µM | 16.7 µM | 16.5 µM | 13.4 µM | 12.8 µM
8 | COc1ccc(C(=O)CC(=O)C(=O)Nc2ccc(C)c(C)c2)cc1 | > 100 µM | > 100 µM | > 100 µM | > 100 µM | > 100 µM | > 56.8 µM | > 100 µM | > 49.2 µM | > 100 µM | > 100 µM | – | – | – | – | – | – | – | – | – | –
9 | O=C(O)c1cccc2cccc(C(=O)O)c12.[Hg] | 32.3 µM | > 100 µM | 29.2 µM | 32.4 µM | 15 µM | 31.7 µM | 33.9 µM | 32 µM | > 100 µM | 35 µM | 18.3 µM | > 100 µM | 15.8 µM | 18.3 µM | 4.04 µM | 16.4 µM | 19.6 µM | 12.7 µM | > 100 µM | 20.7 µM
10 | COc1ccc(-c2cc(-c3cc(C)ccc3O)[nH]c(=O)n2)cc1 | > 100 µM | > 100 µM | > 100 µM | > 100 µM | > 100 µM | > 100 µM | > 100 µM | > 100 µM | > 100 µM | > 100 µM | – | – | – | – | – | – | – | – | – | –
11 | CCCc1nc(NC#N)nc(C(=O)NC23CC4CC(CC(C4)C2)C3)c1C | > 100 µM | > 100 µM | > 100 µM | > 100 µM | > 100 µM | > 100 µM | > 100 µM | > 100 µM | > 100 µM | > 100 µM | – | – | – | – | – | – | – | – | – | –
12 | NCCCNCCSSC/C=C\CSSCCNCCCN | > 100 µM | > 100 µM | > 100 µM | 38.7 µM and 36.3 µM | > 100 µM | > 100 µM | > 100 µM | > 100 µM | > 100 µM | > 100 µM | – | – | – | – | – | – | – | – | – | –
13 | CC1OC(n2c3ccccc3c3c4c(c5c6ccccc6[nH]c5c32)C(=O)N(CCN2CCOCC2)C4=O)CC(O)C1O (stereo not given) | 13.4 µM | 17.7 µM | 16 µM | 10.5 µM | 12.8 µM | 5.27 µM | 9.77 µM | 8.78 µM | 6.06 µM | 10.8 µM | 5.13 µM | 6.14 µM | 3.67 µM | 2.64 µM | 4.54 µM | 0.734 µM | 2.29 µM | 1.07 µM | 1.03 µM | 1.96 µM
14 | CSC1=Nc2c(c(C)c(C)n2COC(CO)CO)C2=NC(=O)CC(C)N12 (stereo not given) | > 100 µM | > 100 µM | > 100 µM | > 100 µM | > 100 µM | > 100 µM | > 100 µM | > 100 µM | > 100 µM | > 100 µM | > 100 µM | > 100 µM | > 100 µM | > 100 µM | > 100 µM | > 100 µM | > 100 µM | > 100 µM | > 100 µM | > 100 µM
15 | CC(C(=O)O)/C(=C\c1ccc2c(c1)OCO2)C(=O)O (stereo not given) | > 100 µM | > 100 µM | > 100 µM | > 100 µM | > 100 µM | > 100 µM | > 100 µM | > 100 µM | > 100 µM | > 100 µM | – | – | – | – | – | – | – | – | – | –
16 | COc1ccc(OC)c(/C=C2\COc3ccc(O)c(O)c3C2=O)c1 | 23.6 µM | 12.2 µM | 6.68 µM | 3.92 µM | 6.58 µM | 5.61 µM | 22.5 µM | 5.98 µM | 4.51 µM | 2.6 µM | 11.2 µM | 3.26 µM | 2.31 µM | 1.73 µM | 2.1 µM | 2.07 µM | 6.94 µM | 2.22 µM | 1.79 µM | 1.22 µM
